In US9365588B2, “Benzoxazines as modulators of ion channels” (Vertex Pharmaceuticals Incorporated, priority 2011, dated 2016) one finds IC50 data, which are given here for 51 molecules.

Sequence of human NaV 1.7 (Q15858 whole entry): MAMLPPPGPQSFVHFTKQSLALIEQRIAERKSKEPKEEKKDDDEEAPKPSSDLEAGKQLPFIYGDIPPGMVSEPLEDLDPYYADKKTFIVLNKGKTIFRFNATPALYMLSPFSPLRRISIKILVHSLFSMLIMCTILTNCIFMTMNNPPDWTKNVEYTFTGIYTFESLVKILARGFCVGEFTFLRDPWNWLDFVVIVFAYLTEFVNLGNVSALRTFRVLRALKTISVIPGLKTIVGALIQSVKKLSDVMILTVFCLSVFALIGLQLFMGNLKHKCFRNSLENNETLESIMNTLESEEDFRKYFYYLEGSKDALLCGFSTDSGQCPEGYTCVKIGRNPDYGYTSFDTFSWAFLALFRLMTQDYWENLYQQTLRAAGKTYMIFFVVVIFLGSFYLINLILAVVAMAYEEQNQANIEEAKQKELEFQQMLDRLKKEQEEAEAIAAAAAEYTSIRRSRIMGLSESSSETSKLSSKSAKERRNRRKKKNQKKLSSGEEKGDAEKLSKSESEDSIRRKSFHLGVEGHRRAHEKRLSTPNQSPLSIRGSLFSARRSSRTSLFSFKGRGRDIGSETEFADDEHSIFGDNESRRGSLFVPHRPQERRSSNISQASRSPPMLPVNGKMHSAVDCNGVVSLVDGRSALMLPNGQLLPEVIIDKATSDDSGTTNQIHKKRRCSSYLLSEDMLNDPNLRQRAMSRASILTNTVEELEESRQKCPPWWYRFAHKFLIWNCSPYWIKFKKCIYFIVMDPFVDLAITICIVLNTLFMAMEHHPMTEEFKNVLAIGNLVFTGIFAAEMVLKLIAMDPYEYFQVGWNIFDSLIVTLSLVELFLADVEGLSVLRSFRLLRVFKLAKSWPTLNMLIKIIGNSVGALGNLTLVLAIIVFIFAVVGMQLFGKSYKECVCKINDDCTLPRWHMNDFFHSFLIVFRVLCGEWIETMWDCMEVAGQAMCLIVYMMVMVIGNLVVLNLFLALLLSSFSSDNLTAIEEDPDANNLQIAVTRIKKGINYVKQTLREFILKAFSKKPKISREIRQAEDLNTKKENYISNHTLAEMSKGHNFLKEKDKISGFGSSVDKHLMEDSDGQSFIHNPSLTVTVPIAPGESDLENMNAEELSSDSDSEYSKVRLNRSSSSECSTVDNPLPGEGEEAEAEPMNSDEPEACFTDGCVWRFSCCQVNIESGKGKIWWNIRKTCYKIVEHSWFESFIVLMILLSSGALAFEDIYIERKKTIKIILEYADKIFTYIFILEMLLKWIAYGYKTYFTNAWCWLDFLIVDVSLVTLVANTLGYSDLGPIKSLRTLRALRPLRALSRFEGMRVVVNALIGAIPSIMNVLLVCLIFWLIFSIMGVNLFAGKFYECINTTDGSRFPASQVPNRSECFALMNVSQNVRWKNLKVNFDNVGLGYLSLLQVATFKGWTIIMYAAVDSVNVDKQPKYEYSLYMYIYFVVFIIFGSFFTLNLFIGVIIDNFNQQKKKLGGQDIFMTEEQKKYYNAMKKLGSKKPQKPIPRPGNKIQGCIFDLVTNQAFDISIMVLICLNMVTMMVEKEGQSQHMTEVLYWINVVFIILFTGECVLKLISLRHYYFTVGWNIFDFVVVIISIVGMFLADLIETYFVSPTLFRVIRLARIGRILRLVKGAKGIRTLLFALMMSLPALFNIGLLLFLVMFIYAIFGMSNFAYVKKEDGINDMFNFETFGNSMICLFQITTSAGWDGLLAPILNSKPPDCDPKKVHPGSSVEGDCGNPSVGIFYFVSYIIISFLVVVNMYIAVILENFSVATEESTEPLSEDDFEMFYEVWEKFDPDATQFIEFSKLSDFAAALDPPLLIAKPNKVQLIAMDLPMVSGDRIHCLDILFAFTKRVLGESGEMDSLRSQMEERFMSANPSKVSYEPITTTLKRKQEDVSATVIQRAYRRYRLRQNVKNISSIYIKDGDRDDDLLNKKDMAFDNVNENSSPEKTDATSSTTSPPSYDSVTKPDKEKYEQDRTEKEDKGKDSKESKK

The test concerns the target human NaV 1.7 (Homo sapiens, UniProt Q15858). The experiment in a line: E-VIPR optical membrane potential assay with electrical stimulation. Type of test: cell-based. Conditions: sodium channel inhibition; read-out: Binned Activity Data (IC50). In outline:
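Membrane-potential read-out: background-subtracted 460 nm/580 nm ratio during a 9 s current-controlled stimulus, 400 Hz scan. Before stimulation, NaV1.7-HEK cells carried coumarin/oxonol dye and compound (final DMSO 0.625%) for 20–35 min at room temperature; tetracaine 125 μM served as positive control.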
Usually IC50 stands for the point on the concentration scale where inhibition reaches its midpoint. Consider `Cn1ncc2c1-c1ccccc1OC21CCN(C(=O)c2cccc3c2OC(C)(C)C3)CC1` [Compound 350], for which the IC50 was not above 2000 nM.
Turning to `CCCOc1ccc(C(=O)N2CCC3(CC2)Oc2ccccc2-n2cccc23)cc1OC` [Compound 352], the IC50 is not above 2000 nM.
On to `COc1ccc(F)c(F)c1C(=O)N1CCC2(CC1)Oc1ccccc1-c1c2cnn1C` [Compound 353], for which the IC50 is more than 5000 nM.
Take `COc1ccc(C(=O)N2CCC3(CC2)Oc2ccccc2-c2c3cnn2C)c(OC)c1OC` [Compound 355]: the IC50 is not above 2000 nM.
To `CC(=O)c1ccc2n1-c1ccccc1OC21CCN(C(=O)c2ccc(S(C)(=O)=O)c(C)c2)CC1` [Compound 357] belongs not above 2000 nM; to `COc1ccc(OC)c(C(=O)N2CCC3(CC2)Oc2ccccc2-c2c3cnn2C)c1` [Compound 358], 2000 to 5000 nM; to `Cc1cc(C(=O)N2CCC3(CC2)Oc2ccccc2-n2c(C)ccc23)ccc1OC(C)C` [Compound 359], not above 2000 nM.
To `CC(=O)c1ccc2n1-c1ccccc1OC21CCN(C(=O)c2ccccc2OC(F)F)CC1` [Compound 360] belongs not above 2000 nM; to `CCCOc1ccc(C(=O)N2CCC3(CC2)Oc2ccccc2-n2cccc23)cc1C#N` [Compound 361], not above 2000 nM; to `COc1cc(C(=O)N2CCC3(CC2)Oc2ccccc2-c2c3cnn2C)ccc1OCCC(C)C` [Compound 362], not above 2000 nM.
To `Cc1cc(C(=O)N2CCC3(CC2)Oc2ccccc2-n2c(C#N)ccc23)ccc1S(=O)(=O)C(C)C` [Compound 363] belongs not above 2000 nM; to `CC(C)(O)c1ccc(C(=O)N2CCC3(CC2)Oc2ccccc2-n2c(C#N)ccc23)cc1CO` [Compound 364], not above 2000 nM.
Consider `COc1cc(C(=O)N2CCC3(CC2)Oc2cc(Cl)ccc2-n2cccc23)ccc1OC1CCC(O)C1` (stereo not drawn) [Compound 366], for which the IC50 is not above 2000 nM.
To `O=C(c1cccc(C(F)(F)F)c1)N1CCC2(CC1)Oc1cc(Cl)ccc1-n1cccc12` [Compound 367] belongs not above 2000 nM.
With `Cn1ncc2c1-c1ccccc1OC21CCN(C(=O)c2ccc3c(c2)C(C)(C)CO3)CC1` [Compound 369], the IC50 was not above 2000 nM.
The same measure for `Cc1cc(C(=O)N2CCC3(CC2)Oc2cc(Cl)ccc2-c2c3cnn2C)ccc1OC(C)C` [Compound 370]: not above 2000 nM; for `CCn1ncc2c1-c1ccccc1OC21CCN(C(=O)c2ccc(C(C)(C)C)c(OC)c2)CC1` [Compound 372]: not above 2000 nM; for `COc1cc(C(=O)N2CCC3(CC2)Oc2cc(Cl)ccc2-n2cccc23)ccc1OCC(N)=O` [Compound 373]: not above 2000 nM.
To `Cc1ccc2c(c1)OC1(CCN(C(=O)c3ccc(OC(C)C)c(CO)c3)CC1)c1ccc(C#N)n1-2` [Compound 375] belongs not above 2000 nM; to `CC(C)Oc1ccc(C(=O)N2CCC3(CC2)Oc2ccccc2-n2cccc23)cc1C(F)(F)F` [Compound 376], not above 2000 nM; to `CCc1ccc(C(=O)N2CCC3(CC2)Oc2cc(F)ccc2-n2cccc23)cc1C` [Compound 377], not above 2000 nM.
The same measure for `COc1cc(C(=O)N2CCC3(CC2)Oc2cc(F)ccc2-n2cccc23)ccc1OCC(C)(C)OC` [Compound 378]: not above 2000 nM; for `CC(=O)c1ccc2n1-c1ccccc1OC21CCN(C(=O)c2ccc(C(C)(C)O)cc2)CC1` [Compound 379]: not above 2000 nM.
For the molecule `Cn1ncc2c1-c1ccccc1OC21CCN(C(=O)c2ccccc2OC(F)F)CC1` [Compound 381], the IC50 is not above 2000 nM.
To `Cn1ncc2c1-c1cc(F)ccc1OC21CCN(C(=O)c2ccccc2OC(F)(F)F)CC1` [Compound 382] belongs not above 2000 nM; to `COc1ccccc1C(=O)N1CCC2(CC1)Oc1ccc(F)cc1-c1c2cnn1C` [Compound 383], not above 2000 nM.
The same measure for `COc1cnccc1C(=O)N1CCC2(CC1)Oc1ccccc1-c1c2cnn1C` [Compound 384]: more than 5000 nM.
On to `CCCOc1ccc(C(=O)N2CCC3(CC2)Oc2ccccc2-c2c3cnn2C)cc1C(F)(F)F` [Compound 387], for which the IC50 was not above 2000 nM.
`Cn1cc2c(n1)-c1ccccc1OC21CCN(C(=O)c2cccc(F)c2OC(F)F)CC1` [Compound 388]: the IC50 was not above 2000 nM.
The same measure for `COCCOc1ccc(C(=O)N2CCC3(CC2)Oc2ccccc2-c2c3cnn2CC(F)(F)F)cc1OC` [Compound 391]: 2000 to 5000 nM; for `COc1ccc(C(=O)N2CCC3(CC2)Oc2cc(Cl)ccc2-n2c(C#N)ccc23)cc1C(F)(F)F` [Compound 392]: not above 2000 nM; for `Cc1nc2cccc(C(=O)N3CCC4(CC3)Oc3cc(Cl)ccc3-n3cccc34)c2o1` [Compound 393]: not above 2000 nM.
`CCc1ccc(C(=O)N2CCC3(CC2)Oc2ccccc2-n2cc(C)cc23)cc1OC` [Compound 395]: the 50% inhibitory concentration (IC50) was not above 2000 nM.
With `COc1cc(C(=O)N2CCC3(CC2)Oc2ccccc2-c2c3cnn2C)ccc1O` [Compound 396], the IC50 was not above 2000 nM.
To `COc1cc(C(=O)N2CCC3(CC2)Oc2ccccc2-n2c(C#N)ccc23)ccc1OC[C@H](O)CO` [Compound 398] belongs 2000 to 5000 nM; to `COc1cc(C(=O)N2CCC3(CC2)Oc2ccccc2-n2cccc23)ccc1C(C)(C)OC` [Compound 399], not above 2000 nM; to `N#Cc1ccc2n1-c1ccccc1OC21CCN(C(=O)c2ccccc2C(F)F)CC1` [Compound 401], not above 2000 nM.
In the case of `CC(C)(C)S(=O)(=O)c1ccc(C(=O)N2CCC3(CC2)Oc2ccccc2-n2c3ccc2S(C)(=O)=O)cc1` [Compound 404], the IC50 was not above 2000 nM.
With `Cn1ccc(C(=O)N2CCC3(CC2)Oc2ccccc2-n2cccc23)cc1=O` [Compound 405], the IC50 was more than 5000 nM.
The same measure for `C[C@@](O)(CO)c1ccc(C(=O)N2CCC3(CC2)Oc2ccccc2-n2c(C#N)ccc23)cc1` [Compound 406]: not above 2000 nM; for `COc1cc(C(=O)N2CCC3(CC2)Oc2cc(Cl)ccc2-n2cccc23)ccc1OC[C@H](C)OC` [Compound 407]: not above 2000 nM.
To `Cc1cc(C(=O)N2CCC3(CC2)Oc2ccccc2-n2c(C#N)ccc23)ccc1OC(C)(C)C(=O)O` [Compound 408] belongs 2000 to 5000 nM; to `O=C(c1ccccc1OC(F)F)N1CCC2(CC1)Oc1ccccc1-c1[nH]ncc12` [Compound 409], more than 5000 nM.
To `CCn1ncc2c1-c1ccccc1OC21CCN(C(=O)c2ccc(OC(C)C)c(C)c2)CC1` [Compound 410] belongs not above 2000 nM.
With `CN(C)CCOc1ccc(C(=O)N2CCC3(CC2)Oc2cc(F)ccc2-n2cccc23)cc1C(F)(F)F` [Compound 411], the half-inhibitory concentration (IC50) was more than 5000 nM.
To `Cc1cc(C(=O)N2CCC3(CC2)Oc2ccccc2-n2c(C(F)(F)F)ccc23)ccc1S(=O)(=O)N(C)C` [Compound 413] belongs not above 2000 nM; to `Cc1cc(C(=O)N2CCC3(CC2)Oc2cccnc2-c2c3cnn2C)ccc1OC(C)C` [Compound 414], not above 2000 nM; to `Cc1cc(C(=O)N2CCC3(CC2)Oc2ccccc2-n2cccc23)ccc1OC(C)C` [Compound 415], not above 2000 nM.
For `Cc1cc(C(=O)N2CCC3(CC2)Oc2cccc(F)c2-n2c(C#N)ccc23)ccc1OC(C)C` [Compound 416], the half-maximal inhibitory concentration (IC50) was not above 2000 nM.
To `COc1cc(C(=O)N2CCC3(CC2)Oc2cc(Cl)ccc2-n2cccc23)ccc1C(C)(C)CO` [Compound 417] belongs not above 2000 nM; to `Cn1ncc2c1-c1ccccc1OC21CCN(C(=O)c2ccc(C3(O)COC3)cc2)CC1` [Compound 418], 2000 to 5000 nM.
